Reference: ChEMBL document CHEMBL4334510, “Antitumor Activity of Vanicoside B Isolated from Persicaria dissitiflora by Targeting CDK8 in Triple-Negative Breast Cancer Cells” (J Nat Prod, 2019)
Blank lines part the entries; values can stand above or below the compound they belong to. The source made the active and inactive calls. No cut-off for these calls is given here.

Experiments:
[1] = Toxicity in Balb/c mouse xenografted with human MDA-MB-231 cells assessed as reduction in body weight at 5 mg/kg, ip ip administered 3 times per week and measured 2 times per week for 29 days; format: organism-based; settings: in vivo, 696 h
Mus musculus [2] = test: Downregulation of phosphorylated STAT1 expression at ser727 residue in Balb/c mouse xenografted with human MDA-MB-231 cells at 5 mg/kg, ip administered 3 times per week for 29 days by DAB staining based immunohistochemical analysis; format: functional, organism-based
Mus musculus [3] = test: Downregulation of AXL expression in Balb/c mouse xenografted with human MDA-MB-231 cells at 5 mg/kg, ip administered 3 times per week for 29 days by DAB staining based immunohistochemical analysis; format: functional, organism-based
Mus musculus [4] = test: Downregulation of Ki67 expression in Balb/c mouse xenografted with human MDA-MB-231 cells at 5 mg/kg, ip administered 3 times per week for 29 days by DAB staining based immunohistochemical analysis; format: functional, organism-based
[5] = target: Cyclin-dependent kinase 8 (Homo sapiens) (UniProt P49336); test: Inhibition of CDK8 in human HCC38 cells assessed as reduction in STAT3 phosphorylation after 24 hrs by Western blot analysis; format: cell-based
Sequence of Cyclin-dependent kinase 8 (Homo sapiens) (P49336 whole entry): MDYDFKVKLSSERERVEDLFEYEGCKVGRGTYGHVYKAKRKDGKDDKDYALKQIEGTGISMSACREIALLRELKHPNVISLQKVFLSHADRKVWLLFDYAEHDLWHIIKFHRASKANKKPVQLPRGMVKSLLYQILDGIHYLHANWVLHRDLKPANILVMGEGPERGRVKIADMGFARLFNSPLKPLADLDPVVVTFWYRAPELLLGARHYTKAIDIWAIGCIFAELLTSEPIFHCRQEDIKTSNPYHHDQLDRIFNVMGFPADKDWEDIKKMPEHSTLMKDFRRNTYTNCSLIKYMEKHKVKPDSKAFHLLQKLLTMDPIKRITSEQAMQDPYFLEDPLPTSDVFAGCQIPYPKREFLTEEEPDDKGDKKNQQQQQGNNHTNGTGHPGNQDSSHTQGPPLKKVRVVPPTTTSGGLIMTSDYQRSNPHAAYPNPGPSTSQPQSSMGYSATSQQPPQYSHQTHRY

[6] = target: Cyclin-dependent kinase 8 (Homo sapiens) (UniProt P49336); test: Inhibition of CDK8 in human HCC38 cells assessed as increase in P27 expression at 10 uM after 24 hrs by RT-PCR analysis; format: cell-based
HCC38 [7] = test: Inhibition of colony formation in human HCC38 cells assessed as reduction in number of colonies at 2.5 to 20 uM after 14 days by crystal violet staining based light microscopic analysis; format: functional, cell-based
MDA-MB-231 [8] = test: Cell cycle arrest in human MDA-MB-231 cells assessed as increase in accumulation of cells at sub-G1 phase at 2.5 to 10 uM by PI/RNase staining based flow cytometric analysis; format: functional
MDA-MB-231 [9] = test: Inhibition of epithelial-mesenchymal transition in human MDA-MB-231 cells reduction in beta catenin protein expression after 24 hrs by Western blot analysis; format: functional, cell-based
MDA-MB-231 [10] = test: Inhibition of colony formation in human MDA-MB-231 cells assessed as reduction in colony size at 2.5 to 20 uM after 14 days by crystal violet staining based light microscopic analysis; format: functional, cell-based
HCC38 [11] = test: Antimigratory activity against human HCC38 cells at 1.25 to 5 uM after 24 hrs by scratch wound healing based microscopic analysis; format: functional, cell-based
MDA-MB-231 [12] = test: Inhibition of colony formation in human MDA-MB-231 cells assessed as reduction in number of colonies at 2.5 to 20 uM after 14 days by crystal violet staining based light microscopic analysis; format: functional, cell-based
[13] = target: Cyclin-dependent kinase 8 (Homo sapiens) (UniProt P49336); test: Inhibition of CDK8 in human HCC38 cells assessed as reduction in skp2 expression after 48 hrs by Western blot analysis; format: cell-based
[14] = target: Cyclin-dependent kinase 8 (Homo sapiens) (UniProt P49336); test: Inhibition of CDK8 in human MDA-MB-231 cells assessed as reduction in STAT3 phosphorylation after 24 hrs by Western blot analysis; format: cell-based
HCC38 [15] = test: Antiproliferative activity against human HCC38 cells assessed as reduction in cell viability after 72 hrs by SRB assay; format: functional, cell-based
MDA-MB-231 [16] = test: Antimigratory activity against human MDA-MB-231 cells at 1.25 to 5 uM after 24 hrs by scratch wound healing based microscopic analysis; format: functional, cell-based
[17] = Toxicity in Balb/c mouse xenografted with human MDA-MB-231 cells assessed as effect on body weight at 5 to 20 mg/kg, ip ip administered 3 times per week and measured 2 times per week for 29 days; format: organism-based; settings: in vivo, 696 h
[18] = target: Cyclin-dependent kinase 8 (Homo sapiens) (UniProt P49336); test: Inhibition of CDK8 in human MDA-MB-231 cells assessed as reduction in HK1 expression at 10 uM after 24 hrs by RT-PCR analysis; format: cell-based
[19] = target: Cyclin-dependent kinase 8 (Homo sapiens) (UniProt P49336); test: Inhibition of CDK8 in human MDA-MB-231 cells assessed as reduction in STAT1 phosphorylation at Ser727 residue after 24 hrs by Western blot analysis; format: cell-based
Mus musculus [20] = test: Downregulation of AXL expression in Balb/c mouse xenografted with human MDA-MB-231 cells at 5 to 20 mg/kg, ip administered 3 times per week for 29 days by DAB staining based immunohistochemical analysis; format: functional, organism-based
HCC38 [21] = test: Inhibition of epithelial-mesenchymal transition in human HCC38 cells reduction in beta catenin protein expression after 24 hrs by Western blot analysis; format: functional, cell-based
[22] = target: Cyclin-dependent kinase 8 (Homo sapiens) (UniProt P49336); test: Inhibition of CDK8 in human MDA-MB-231 cells assessed as increase in P27 expression after 48 hrs by Western blot analysis; format: cell-based
HCC38 [23] = test: Inhibition of epithelial-mesenchymal transition in human HCC38 cells reduction in vimentin protein expression after 24 hrs by Western blot analysis; format: functional, cell-based
[24] = target: Cyclin-dependent kinase 8 (Homo sapiens) (UniProt P49336); test: Inhibition of CDK8 in human HCC38 cells assessed as reduction in HK1 expression at 10 uM after 24 hrs by RT-PCR analysis; format: cell-based
MDA-MB-231 [25] = test: Antiproliferative activity against human MDA-MB-231 cells assessed as reduction in cell viability after 72 hrs by SRB assay; format: functional, cell-based
[26] = target: Cyclin-dependent kinase 8 (Homo sapiens) (UniProt P49336); test: Inhibition of CDK8 in human HCC38 cells assessed as reduction in AXL expression after 24 hrs by Western blot analysis; format: cell-based
MDA-MB-231 [27] = test: Antitumour activity against human MDA-MB-231 cells xenografted in Balb/c mouse assessed as reduction in tumour volume at 5 mg/kg, ip administered 3 times per week and measured 2 times per week for 29 days relative to control; format: functional; design: scale not given: the % may be the effect or the level left
[28] = target: Cyclin-dependent kinase 8 (Homo sapiens) (UniProt P49336); test: Inhibition of CDK8 in human MDA-MB-231 cells assessed as reduction in S6 phosphorylation after 24 hrs by Western blot analysis; format: cell-based
HCC38 [29] = test: Inhibition of epithelial-mesenchymal transition in human HCC38 cells reduction in N-cadherin expression at 5 uM after 24 hrs by RT-PCR analysis; format: functional, cell-based
[30] = target: Cyclin-dependent kinase 8 (Homo sapiens) (UniProt P49336); test: Inhibition of CDK8 in human HCC38 cells assessed as reduction in S6 phosphorylation after 24 hrs by Western blot analysis; format: cell-based
Mus musculus [31] = test: Downregulation of phosphorylated STAT1 expression at ser727 residue in Balb/c mouse xenografted with human MDA-MB-231 cells at 5 to 20 mg/kg, ip administered 3 times per week for 29 days by DAB staining based immunohistochemical analysis; format: functional, organism-based
[32] = target: Cyclin-dependent kinase 8 (Homo sapiens) (UniProt P49336); test: Inhibition of CDK8 in human MDA-MB-231 cells assessed as reduction in skp2 expression after 48 hrs by Western blot analysis; format: cell-based
MDA-MB-231 [33] = test: Inhibition of epithelial-mesenchymal transition in human MDA-MB-231 cells reduction in vimentin protein expression after 24 hrs by Western blot analysis; format: functional, cell-based
[34] = target: Cyclin-dependent kinase 8 (Homo sapiens) (UniProt P49336); test: Inhibition of CDK8 in human MDA-MB-231 cells assessed as increase in P27 expression at 10 uM after 24 hrs by RT-PCR analysis; format: cell-based
HCC38 [35] = test: Induction of apoptosis in human HCC38 cells at 2.5 to 20 uM after 48 hrs by Annexin-V/PI staining based flow cytometric analysis; format: functional, cell-based
Mus musculus [36] = test: Downregulation of Ki67 expression in Balb/c mouse xenografted with human MDA-MB-231 cells at 5 to 20 mg/kg, ip administered 3 times per week for 29 days by DAB staining based immunohistochemical analysis; format: functional, organism-based
MDA-MB-231 [37] = test: Induction of apoptosis in human MDA-MB-231 cells at 2.5 to 20 uM after 48 hrs by Annexin-V/PI staining based flow cytometric analysis; format: functional, cell-based
MDA-MB-231 [38] = test: Antitumour activity against human MDA-MB-231 cells xenografted in Balb/c mouse assessed as reduction in tumour volume at 20 mg/kg, ip administered 3 times per week and measured 2 times per week for 29 days relative to control; format: functional; design: scale not given: the % may be the effect or the level left
HCC38 [39] = test: Inhibition of epithelial-mesenchymal transition in human HCC38 cells increase in E-cadherin expression at 5 uM after 24 hrs by RT-PCR analysis; format: functional, cell-based
[40] = target: Cyclin-dependent kinase 8 (Homo sapiens) (UniProt P49336); test: Inhibition of CDK8 in human MDA-MB-231 cells assessed as reduction in AXL expression after 24 hrs by Western blot analysis; format: cell-based
MDA-MB-231 [41] = test: Inhibition of epithelial-mesenchymal transition in human MDA-MB-231 cells increase in E-cadherin expression at 5 uM after 24 hrs by RT-PCR analysis; format: functional, cell-based
[42] = target: Cyclin-dependent kinase 8 (Homo sapiens) (UniProt P49336); test: Inhibition of CDK8 in human HCC38 cells assessed as increase in P27 expression after 48 hrs by Western blot analysis; format: cell-based
MDA-MB-231 [43] = test: Inhibition of epithelial-mesenchymal transition in human MDA-MB-231 cells reduction in BMP4 protein expression after 24 hrs by Western blot analysis; format: functional, cell-based
MDA-MB-231 [44] = test: Induction of apoptosis in human MDA-MB-231 cells assessed as increase in PARP cleavage after 48 hrs by Western blot analysis; format: functional, cell-based
MDA-MB-231 [45] = test: Inhibition of epithelial-mesenchymal transition in human MDA-MB-231 cells reduction in N-cadherin expression at 5 uM after 24 hrs by RT-PCR analysis; format: functional, cell-based
HCC38 [46] = test: Cell cycle arrest in human HCC38 cells assessed as increase in accumulation of cells at sub-G1 phase at 2.5 to 10 uM by PI/RNase staining based flow cytometric analysis; format: functional
HCC38 [47] = test: Inhibition of colony formation in human HCC38 cells assessed as reduction in colony size at 20 uM after 14 days by crystal violet staining based light microscopic analysis; format: functional, cell-based
HCC38 [48] = test: Inhibition of epithelial-mesenchymal transition in human HCC38 cells reduction in BMP4 protein expression after 24 hrs by Western blot analysis; format: functional, cell-based
[49] = target: Cyclin-dependent kinase 8 (Homo sapiens) (UniProt P49336); test: Inhibition of CDK8 in human HCC38 cells assessed as reduction in STAT1 phosphorylation at Ser727 residue after 24 hrs by Western blot analysis; format: cell-based
HCC38 [50] = test: Induction of apoptosis in human HCC38 cells assessed as increase in PARP cleavage after 48 hrs by Western blot analysis; format: functional, cell-based

SMILES: CC(=O)O[C@H]1C(=O)[C@@]2(C)[C@H]([C@H](OC(=O)c3ccccc3)[C@]3(O)C[C@H](OC(=O)[C@H](O)[C@@H](NC(=O)c4ccccc4)c4ccccc4)C(C)=C1C3(C)C)[C@]1(OC(C)=O)CO[C@@H]1C[C@@H]2O [PACLITAXEL]
- Activity [1]: Toxic
- Activity (Mus musculus [2]): inactive
- Activity (Mus musculus [3]): inactive
- Activity (Mus musculus [4]): Active

- inhibition [5]: Dose-dependent effect
- inhibition [6]: Active
- inhibition [13]: Dose-dependent effect
- inhibition [14]: Dose-dependent effect
- inhibition [18]: Active
- inhibition [19]: Dose-dependent effect
- inhibition [22]: Dose-dependent effect
- inhibition [24]: Active
- IC50 (MDA-MB-231 [25]; MDA-MB-231, 72 h): 9 µM
- inhibition [26]: Dose-dependent effect
- inhibition [28]: Dose-dependent effect
- inhibition [30]: Dose-dependent effect
- inhibition [32]: Dose-dependent effect
- inhibition [34]: Active
- inhibition [40]: Dose-dependent effect
- inhibition [42]: Dose-dependent effect
- inhibition [49]: Dose-dependent effect
SMILES: COc1cc(/C=C/C(=O)OC[C@H]2O[C@H](O[C@]3(COC(=O)/C=C/c4ccc(O)cc4)O[C@H](COC(=O)/C=C/c4ccc(O)cc4)[C@@H](O)[C@@H]3OC(=O)/C=C/c3ccc(O)cc3)[C@H](O)[C@@H](O)[C@@H]2O)ccc1O [VANICOSIDE B]
- inhibition (HCC38 [7]): Active
- Activity (MDA-MB-231 [8]): Active
- inhibition (MDA-MB-231 [9]): Dose-dependent effect
- inhibition (MDA-MB-231 [10]): Active
- Activity (HCC38 [11]): Active
- inhibition (MDA-MB-231 [12]): Active
- Activity (HCC38 [15]): Dose-dependent effect
- Activity (MDA-MB-231 [16]): Active
- Activity [17]: Non-Toxic
- Activity (Mus musculus [20]): Active
- inhibition (HCC38 [21]): Dose-dependent effect
- inhibition (HCC38 [23]): Dose-dependent effect
- Activity (MDA-MB-231 [25]): Dose-dependent effect
- Activity (MDA-MB-231 [27]): 53.85%
- inhibition (HCC38 [29]): Active
- Activity (Mus musculus [31]): Active
- inhibition (MDA-MB-231 [33]): Dose-dependent effect
- Activity (HCC38 [35]): Active
- Activity (Mus musculus [36]): Active
- Activity (MDA-MB-231 [37]): Active
- Activity (MDA-MB-231 [38]): 65.72%
- inhibition (HCC38 [39]): Active
- inhibition (MDA-MB-231 [41]): Active
- inhibition (MDA-MB-231 [43]): Dose-dependent effect
- Activity (MDA-MB-231 [44]): Dose-dependent effect
- inhibition (MDA-MB-231 [45]): Active
- Activity (HCC38 [46]): Active
- inhibition (HCC38 [47]): Active
- inhibition (HCC38 [48]): Dose-dependent effect
- Activity (HCC38 [50]): Dose-dependent effect
